Laboratory results taken from PMC7248905, “Development of UHPLC-MS/MS Method for Indirubin-3′-Oxime Derivative as a Novel FLT3 Inhibitor and Pharmacokinetic Study in Rats” (Molecules, 2020).
Where two headings read alike, the source gives them in different places.

Columns and labels:
[1] = tested on: MV4-11 cells; parameters: method as in PMID 32272419; conditions: AML line of MV4-11 cells, previous studies; cited from earlier work
[2] = Stability of LDD-2614 in rat plasma (freeze-thaw, long-term, short-term, autosampler); format: in vitro ADME; conditions: for Measured Concentration: n = 5
Description: Stability studies using three QC samples for freeze-thaw stability (three freeze-thaw cycles lasting 12 h each), long-term stability (sample stored at −80 °C and analyzed after 2 weeks), short-term temperature stability (samples kept at room temperature for 6 h), and post-preparation stability (12 h in autosampler) were evaluated. The measurements of the analytes were compared with those from newly prepared QC samples at the same concentrations. The accuracy (RE) of all analytes ranged from −0.6% to 8.6% for the three freeze-thaw cycles, −5.5% to −2.6% for long-term stability, −3.6% to −0.1% for short-term stability, and −1.5% to 1.5% for post-preparation stability.
Stability was evaluated with rat plasma at the four QC concentrations. Three freeze (−80 °C) and thaw (room temperature, 25 °C and stand for 2 h) cycles, long-term stability (−80 °C for 2 weeks), short-term stability (room temperature for 6 h), and post-extraction stability (12 h in the autosampler at 4 °C) were tested. The concentrations of the prepared stability samples were compared to the QC samples prepared on the day of analysis. The stability samples were considered stable if recovered within 15% compared to the QC sample concentration.

[3] = tested on: FLT3; parameters: method as in PMID 32272419; conditions: in vitro assays, previous studies; cited from earlier work
[4] = tested on: MV4-11 xenograft; parameters: method as in PMID 32272419; conditions: MV4-11 xenograft animal model, previous studies; cited from earlier work
[5] = Pharmacokinetic study in rats after intravenous and oral administration; format: in vivo, Sprague Dawley rats; parameters: AUC/Dose: unit not given here; conditions: rat; for AUC(0-t) / clearance / MRT / half-life / Vd / Cmax / bioavailability: male, Sprague Dawley, plasma; for clearance: read-out: CL (time averaged total body clearance); for MRT: read-out: MRT (mean residence time) (converted); for Vd: read-out: Vd,ss (apparent volume of distribution at steady state); for Cmax: read-out: Cmax (maximum plasma concentration)
Description: The validated LC-MS/MS method was successfully implemented to quantify LDD-2614 in Sprague Dawley rat plasma to perform a pharmacokinetic study on LDD-2614 in rats after oral and intravenous administration.
Male Sprague Dawley rats (7–8 weeks, 230–250 g) were supplied from Samtaco (Osan, Korea) and were housed in cages before the experiments. All animal experiments were approved by the Dankook University’s Institutional Animal Care and Use Committee (approval no. DKU-19-029). All rats were kept in a light-controlled room maintained at a temperature of 23 ± 2 °C with 12 h light and dark cycles and a relative humidity of 50% ± 10%. The rats were given ad libitum access to standard food and water and acclimated to the environment for 7 days prior to the experiment.
The rats were fasted for at least 12 h prior to the start of the experiments and freely supplied water. On the morning of the test, the rats were anaesthetized with a mixture of alfaxan and rompun (75:25, v/v). For oral administration studies, the carotid artery was cannulated using a polyethylene tube (PE 60, 0.76 mm i.d., 1.22 mm o.d., Becton Dickinson, Franklin Lakes, NJ, USA) for efficient blood sampling. For intravenous administration studies, the carotid artery and jugular veins were cannulated for blood sampling and drug administration, respectively. Each cannula was exteriorized to the dorsal side of the neck. Then, each rat was individually housed in a rat metabolism cage and allowed to move freely. A recovery time of 3–4 h from anesthesia was allowed before drug administration. The rats were randomly divided into six groups as follows: the first three groups were orally administered LDD-2614 (4 mL/kg dissolved in distilled water) using a gastric gavage tube at doses of 1, 5, and 20 mg/kg, and the remaining three groups were intravenously injected over 1 min with LDD-2614 (4 mL/kg dissolved in distilled water) at doses of 1, 5, and 20 mg/kg. Samples of approximately 0.2 mL of blood were immediately collected via the carotid artery at 0 (before administration), 5, 15, 30, 60, 90, 120, 180, 240, 360, 480, and 1440 min after oral and intravenous administration. For intravenous administration, a sampling time of 1 min after administration was also added, and the remaining times were the same. The blood samples were immediately centrifuged at 12,000 rpm for 5 min. Each plasma sample was transferred into a new microtube and stored at −80 °C until used for LC–MS/MS analysis.
All data are expressed as mean ± standard deviation. The pharmacokinetic parameters were calculated using Phoenix WinNonlin 2.1 (Pharmasight, Mountain View, CA, USA). A noncompartmental model was used.

[6] = extracted rat plasma, autosampler 4 °C 12 h, nominal 0.3 ng/mL
[7] = extracted rat plasma, autosampler 4 °C 12 h, nominal 150 ng/mL
[8] = extracted rat plasma, autosampler 4 °C 12 h, nominal 400 ng/mL
[9] = rat plasma, long-term −80 °C 2 weeks, nominal 0.3 ng/mL
[10] = rat plasma, long-term −80 °C 2 weeks, nominal 150 ng/mL
[11] = rat plasma, long-term −80 °C 2 weeks, nominal 400 ng/mL
[12] = rat plasma, short-term room temp 6 h, nominal 0.3 ng/mL
[13] = rat plasma, short-term room temp 6 h, nominal 150 ng/mL
[14] = rat plasma, short-term room temp 6 h, nominal 400 ng/mL
[15] = rat plasma, three freeze-thaw cycles, nominal 0.3 ng/mL
[16] = rat plasma, three freeze-thaw cycles, nominal 150 ng/mL
[17] = rat plasma, three freeze-thaw cycles, nominal 400 ng/mL

Accuracy (RE) [2, 6]: −1.1%
Measured Concentration [2, 6]: 0.30 ± 0.03 ng/mL
Accuracy (RE) [2, 7]: −1.5%
Measured Concentration [2, 7]: 147.8 ± 2.98 ng/mL
Accuracy (RE) [2, 8]: 1.5%
Measured Concentration [2, 8]: 410.2 ± 24.3 ng/mL
degradation under the different storage and analysis conditions ([2]; rat plasma, freeze-thaw, long-term, short-term, post-preparation): no significant degradation observed
Accuracy (RE) [2, 9]: −4.8%
Measured Concentration [2, 9]: 0.29 ± 0.02 ng/mL
Accuracy (RE) [2, 10]: −2.6%
Measured Concentration [2, 10]: 146.1 ± 0.65 ng/mL
Accuracy (RE) [2, 11]: –5.5%
Measured Concentration [2, 11]: 378.1 ± 17.7 ng/mL
Accuracy (RE) [2, 12]: −0.1%
Measured Concentration [2, 12]: 0.30 ± 0.03 ng/mL
Accuracy (RE) [2, 13]: −3.6%
Measured Concentration [2, 13]: 144.6 ± 6.46 ng/mL
Accuracy (RE) [2, 14]: −1.2%
Measured Concentration [2, 14]: 395.1 ± 13.0 ng/mL
Accuracy (RE) [2, 15]: 8.6%
Measured Concentration [2, 15]: 0.33 ± 0.02 ng/mL
Accuracy (RE) [2, 16]: −0.6%
Measured Concentration [2, 16]: 149.1 ± 1.31 ng/mL
Accuracy (RE) [2, 17]: −0.3%
Measured Concentration [2, 17]: 398.9 ± 6.04 ng/mL
AUC(0-t) ([5]; intravenous, 1 mg/kg, n = 7, mean ± SD): 635 ng·h/mL
clearance ([5]; intravenous, 1 mg/kg): 30.7 ± 13.6 mL/min/kg
MRT ([5]; intravenous, 1 mg/kg): 4.53 h
half-life ([5]; intravenous, 1 mg/kg, read-out: T1/2 (terminal half-life)): 4.91 ± 0.542 h
Vd ([5]; intravenous, 1 mg/kg): 9.62 ± 3.38 L/kg
AUC(0-t) ([5]; intravenous, 5 mg/kg, n = 5, mean ± SD): 3510 ng·h/mL
clearance ([5]; intravenous, 5 mg/kg): 20.8 ± 8.4 mL/min/kg
MRT ([5]; intravenous, 5 mg/kg): 4.76 h
half-life ([5]; intravenous, 5 mg/kg, read-out: T1/2 (terminal half-life)): 3.31 ± 0.575 h
Vd ([5]; intravenous, 5 mg/kg): 6.42 ± 2.44 L/kg
AUC(0-t) ([5]; intravenous, 20 mg/kg, n = 6, mean ± SD): 14400 ng·h/mL
clearance ([5]; intravenous, 20 mg/kg): 23.2 ± 3.7 mL/min/kg
MRT ([5]; intravenous, 20 mg/kg): 5.88 h
half-life ([5]; intravenous, 20 mg/kg, read-out: T1/2 (terminal half-life)): 3.38 ± 0.778 h
Vd ([5]; intravenous, 20 mg/kg): 8.67 ± 2.08 L/kg
half-life ([5]; intravenous, dose range 1–20 mg/kg, terminal phase, read-out: half-life (T1/2)): 3 to 4 h
AUC(0-t) ([5]; oral, 1 mg/kg, n = 6, mean ± SD): 73.8 ng·h/mL
Cmax ([5]; oral, 1 mg/kg): 5.96 ± 1.77 ng/mL
bioavailability ([5]; oral, 1 mg/kg, read-out: F (bioavailability)): 11.7%
AUC(0-t) ([5]; oral, 5 mg/kg, n = 6, mean ± SD): 390 ng·h/mL
Cmax ([5]; oral, 5 mg/kg): 43.7 ± 8.2 ng/mL
bioavailability ([5]; oral, 5 mg/kg, read-out: F (bioavailability)): 11.1%
AUC(0-t) ([5]; oral, 20 mg/kg, n = 5, mean ± SD): 1020 ng·h/mL
Cmax ([5]; oral, 20 mg/kg): 120 ± 33.4 ng/mL
bioavailability ([5]; oral, 20 mg/kg, read-out: F (bioavailability)): 7.1%
bioavailability ([5]; oral, doses 1–20 mg/kg, compared with intravenous AUClast, read-out: bioavailability after oral administration): 7.1 to 11.7%
AUC/Dose ([5]; intravenous, 1 mg/kg): 38.1 ± 18.5
AUC/Dose ([5]; intravenous, 5 mg/kg): 42.1 ± 12.9
AUC/Dose ([5]; intravenous, 20 mg/kg): 43.2 ± 7.5
AUC/Dose ([5]; oral, 1 mg/kg): 4.43 ± 0.39
AUC/Dose ([5]; oral, 5 mg/kg): 4.69 ± 3.05
AUC/Dose ([5]; oral, 20 mg/kg): 3.05 ± 1.24
increase in AUC ([5]; oral, 20 mg/kg versus 5 mg/kg (four-fold increase in dose)): approximately 2.5 fold
SMILES: O=C1Nc2ccc(F)cc2C1=C1Nc2ccc(F)cc2C1=NOCCN1CCNCC1 [LDD-2614]
anti-proliferative activity [1]: anti-proliferative activity
FLT3 inhibition [3]: FLT3 inhibition
in vivo antitumor activity [4]: significant in vivo antitumor activity
dose linearity of pharmacokinetics ([5]; intravenous, dose range 1–20 mg/kg): linear pharmacokinetic characteristics were observed
